Assay results reported in publication PMC4848466, “Insights into the activation mechanism of class I HDAC complexes by inositol phosphates” (Nature Communications, 2016).
Entries after “also recorded” stand apart in the source; their conditions may differ. Blank lines part the entries; values can stand above or below the molecule they belong to. Non-standard residues stand in square brackets, D forms with d. Residues, ends and D or L forms follow the SMILES beside them. *: point of attachment. Asu = N[C@@H](CCCCCC(=O)O)C(=O)O; NHOH = ON*

Columns and labels:
[1] = target: T1, HDAC3:SMRT (Homo sapiens, UniProt O15379+Q9Y618); test: Fluorescence anisotropy direct binding of 2-FAM-Ins(1,3,4,5,6)P5; details: inhibitor bound at the active site
T1 sequence (O15379 whole entry): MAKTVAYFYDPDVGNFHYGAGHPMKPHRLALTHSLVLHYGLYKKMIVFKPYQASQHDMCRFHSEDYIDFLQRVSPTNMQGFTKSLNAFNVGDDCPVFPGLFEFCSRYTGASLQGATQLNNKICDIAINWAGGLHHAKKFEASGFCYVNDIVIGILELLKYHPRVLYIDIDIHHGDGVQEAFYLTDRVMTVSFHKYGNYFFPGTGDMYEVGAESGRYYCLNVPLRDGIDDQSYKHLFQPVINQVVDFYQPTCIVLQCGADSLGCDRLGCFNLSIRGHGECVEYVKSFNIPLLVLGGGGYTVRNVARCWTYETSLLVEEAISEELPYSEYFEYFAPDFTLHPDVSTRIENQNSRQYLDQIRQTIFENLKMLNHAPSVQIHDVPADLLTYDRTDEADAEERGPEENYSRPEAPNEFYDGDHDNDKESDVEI
T1 sequence (Q9Y618 350-480): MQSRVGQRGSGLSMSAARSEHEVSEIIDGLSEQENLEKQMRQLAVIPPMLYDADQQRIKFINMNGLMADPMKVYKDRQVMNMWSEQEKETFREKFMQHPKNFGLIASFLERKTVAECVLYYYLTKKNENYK
Experimental: When required, assays were performed in the presence of HDAC inhibitor (20 mM final concentration). Plates were mixed by shaking for 1 s, and measurements taken using a Victor X5 plate reader (Perkin Elmer) at room temperature with an excitation wavelength of 480 nm and an emission wavelength of 535 nm. Experiments were performed in triplicate and data were analysed using GraphPad Prism (version 6.0), Kd values were calculated by nonlinear curve fitting using a one-site binding (hyperbola) model (Y=Bmax*X/(Kd+X).

[2] = target: T2, HDAC3:SMRT complex (Homo sapiens, UniProt O15379+Q9Y618); test: Activation of HDAC3:SMRT deacetylase activity by inositol phosphates (BOC-Lys-AMC assay); assay type: biochemical; details: for Kd / HDAC3 activation relative to maximal Ins(1,4,5,6)P4-stimulated activity: BOC-Lys-AMC assay; for Kd: one-site binding fit of HDAC activity vs inositol phosphate concentration, read-out: Kdapp (apparent Kd from activation titration); for HDAC3 activation relative to maximal Ins(1,4,5,6)P4-stimulated activity: titration / maximal activation; for HDAC activity as percentage of maximal Ins(1,4,5,6)P4 activity: compound tested at 200 μM
T2 construct: Full-length HDAC3, and residues 350–480 of SMRT were cloned into pcDNA3 vectors; residues 350–480 of SMRT were cloned into pcDNA3 vectors; FLAG tag with TEV protease cleavage site (cleaved yes); made in house; host or cells: HEK293F cells (co-transfection, pcDNA3)
T2 sequence (O15379 whole entry, the tested form may be a part): as the sequence (O15379 whole entry) above
T2 sequence (Q9Y618 350-480): as the sequence (Q9Y618 350-480) above
Experimental: (§1) To understand the stereochemical basis underlying the activation of HDAC3 by inositol phosphates we investigated the ability of a range of inositol phosphates and derivatives to enhance the activity of HDAC3 in deacetylase assays. To achieve this we used an assay based on the complex of HDAC3 with an extended SMRT construct which is stable in the absence of inositol phosphate.
(§2) HDAC activity of the protein complex was measured using an HDAC assay with a BOC-Lys-AMC substrate. 50 nM HDAC3:SMRT or 50 nM HDAC1:MTA1 was incubated with 100 μM BOC-Lys-AMC substrate in a final volume of 50 μl buffer A (50 mM Tris pH 7.5, 50 mM NaCl, 5% Glycerol), in a black 96-well plate for 30 min at 37 °C.
(§3) To test the ability of inositol phosphates and derivatives to activate the complex, 50 nM HDAC3:SMRT (which had been stripped of its endogenous co-purified inositol phosphate) or 50 nM HDAC1:MTA1 was incubated with inositol phosphate or analogue for 30 min at 37 °C before the HDAC activity was measured. All measurements were performed in triplicate and data analysed using GraphPad Prism (version 6.0, GraphPad Software, Inc).

[3] = target: T1, HDAC3:SMRT; test: Fluorescence anisotropy displacement of 2-FAM-Ins(1,3,4,5,6)P5; assay type: binding; parameters: Full-length HDAC3, and residues 350–480 of SMRT were cloned into pcDNA3 vectors; residues 350–480 of SMRT were cloned into pcDNA3 vectors; FLAG tag with TEV protease cleavage site (cleaved yes); made in house; host or cells: HEK293F cells (co-transfection, pcDNA3); details: fluorescence anisotropy competition; for IC50: read-out: IC50 displacement of 2-FAM-Ins(1,3,4,5,6)P5
Experimental: The concentration of protein was determined as that which gave 100% bound in the protein titration experiments. The data were analysed and IC50 values calculated using GraphPad Prism (version 6.0).

[4] = target: T3, HDAC1:MTA1 complex (Homo sapiens, UniProt Q13330+Q13547); test: Activation of HDAC1:MTA1 deacetylase activity by inositol phosphates (BOC-Lys-AMC assay); assay type: biochemical; details: for Kd: read-out: Kdapp (apparent Kd from activation titration)
T3 construct: Full-length HDAC1 and residues 162–354 of MTA1 were cloned into pcDNA3 vectors; residues 162–354 of MTA1 were cloned into pcDNA3 vectors; FLAG tag with TEV protease cleavage site (cleaved yes); made in house; host or cells: HEK293F cells (co-transfection, pcDNA3)
T3 sequence (Q13547 whole entry, one chain of several, the tested form may be a part): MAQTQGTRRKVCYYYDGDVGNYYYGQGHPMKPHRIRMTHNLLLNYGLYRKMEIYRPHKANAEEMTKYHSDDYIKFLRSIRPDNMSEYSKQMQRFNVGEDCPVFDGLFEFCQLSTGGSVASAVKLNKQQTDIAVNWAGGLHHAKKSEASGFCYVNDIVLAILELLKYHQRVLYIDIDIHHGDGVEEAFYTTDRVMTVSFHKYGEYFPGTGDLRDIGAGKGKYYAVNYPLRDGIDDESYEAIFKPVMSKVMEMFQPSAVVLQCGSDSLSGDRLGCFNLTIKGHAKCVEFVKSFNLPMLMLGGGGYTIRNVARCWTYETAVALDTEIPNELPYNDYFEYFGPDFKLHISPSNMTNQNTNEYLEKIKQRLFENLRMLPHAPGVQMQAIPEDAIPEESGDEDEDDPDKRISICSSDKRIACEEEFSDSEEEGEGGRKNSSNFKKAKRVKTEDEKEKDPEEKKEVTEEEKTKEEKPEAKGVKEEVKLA
Experimental: as §2, §3

[5] = target: HDAC1:MTA1 complex (UniProt Q13547)
Sequence of HDAC1:MTA1 complex (UniProt Q13547) (Q13547 whole entry, one chain of several): as the sequence (Q13547 whole entry, one chain of several, the tested form may be a part) above

[6] = target: T4, HDAC1:MTA1 (Homo sapiens, UniProt Q13330+Q13547); test: Inhibition of HDAC1:MTA1 by peptide-based inhibitor; assay type: biochemical
T4 construct: Full-length HDAC1 and residues 162–354 of MTA1 were cloned into pcDNA3 vectors; residues 162–354 of MTA1 were cloned into pcDNA3 vectors; FLAG tag with TEV protease cleavage site (cleaved yes); made in house; host or cells: HEK293F cells (co-transfection, pcDNA3)
T4 sequence (Q13547 whole entry, one chain of several, the tested form may be a part): as above

[7] = target: T1, HDAC3:SMRT; test: Michaelis-Menten enzyme kinetics on Caliper EZ Reader with H4K16ac peptide; assay type: biochemical; parameters: Full-length HDAC3, and residues 350–480 of SMRT were cloned into pcDNA3 vectors; residues 350–480 of SMRT were cloned into pcDNA3 vectors; FLAG tag with TEV protease cleavage site (cleaved yes); made in house; host or cells: HEK293F cells (co-transfection, pcDNA3); details: H4 12–18K16ac peptide; in the presence of the inositol phosphate
From the text: (§4) To explore further the differences between the two complexes we established a more physiological, real-time kinetic assay using substrates based on the tails of histones H4 and H3. The peptides tested were; H4 12–18(K16ac), H3 23–29(K27ac) and H3 6–12(K9ac). […] HDAC3:SMRT is most catalytically active against H3 23–29(K27ac) (Supplementary Fig. 7), whereas HDAC1:MTA1 is most catalytically active against H4 12–18(K16ac) (Fig. 4d). In both cases an approximate 3-fold greater kcat is observed for the preferred versus non-preferred substrate, in the absence of inositol phosphate. […] The net effect of both inositol phosphates tested was between a two and fivefold increase in catalytic efficiency (kcat/Km) (Fig. 4c,d, Supplementary Fig. 7).
(§5) Michaelis–Menten kinetics were determined using a HDAC assay on the Caliper EZ Reader II system (Caliper Life Sciences, http://www.caliperls.com). To assess the effect of inositol phosphate, 20 nM HDAC3:SMRT or 80 nM HDAC1:MTA1 were pre-mixed with InsP6 before dilution and addition of fluorescein-labelled H4K16Ac substrate. Reactions were carried out in duplicate in 30 μl reaction volumes, performed at room temperature in 50 mM Tris pH 7.5, 50 mM NaCl, 5% glycerol. Data was analysed using GraphPad Prism (version 6.0).

[8] = target: T4, HDAC1:MTA1; test: as above; assay type: biochemical; details: H4 12–18K16ac peptide; in the presence of the inositol phosphate
From the text: as §4, §5

[9] = target: T5, HDAC3:SMRT complex (Homo sapiens, UniProt O15379); test: Activation of HDAC3:SMRT deacetylase activity by inositol phosphates (BOC-Lys-AMC assay); assay type: biochemical; details: BOC-Lys-AMC assay; one-site binding fit of HDAC activity vs inositol phosphate concentration; read-out: Kdapp (apparent Kd from activation titration)
T5 construct: Full-length HDAC3, and residues 350–480 of SMRT were cloned into pcDNA3 vectors; residues 350–480 of SMRT were cloned into pcDNA3 vectors; FLAG tag with TEV protease cleavage site (cleaved yes); made in house; host or cells: HEK293F cells (co-transfection, pcDNA3)
T5 sequence (O15379 whole entry, the tested form may be a part): as the sequence (O15379 whole entry) above
T5 sequence (Q9Y618 350-480, further chain): as the sequence (Q9Y618 350-480) above
Experimental: as §1, §2, §3

[10] = target: T6, HDAC1 (UniProt Q13547 1-482); test: crystal structure; HDAC1:MTA1 (co-expressed and co-purified, 5 mg/ml) co-crystallised with H4K16Hx at a 1:2 molar ratio; sitting drop, 20 °C, 0.1 M HEPES pH 7.5, 2 M ammonium sulfate, 5% PEG400; crystals frozen with 225 mM InsP6; 3.3 Å; details: both partners purified
T6 construct: Histone deacetylase 1 (HDAC1), full length, cloned into pcDNA3; Only handled as the co-expressed, co-purified complex with MTA1 162-354; also called histone deacetylase 1; source: HEK293F, co-transfected with the MTA1 construct, purified as the complex (FLAG resin, TEV elution, gel filtration)
T6 sequence (Q13547 whole entry): as the sequence (Q13547 whole entry, one chain of several, the tested form may be a part) above

Molecule: O=P(O)(O)OC1C(O)C(OP(=O)(O)O)C(OP(=O)(O)O)C(OP(=O)(O)O)C1O (centres unmarked) [Ins(1,3,5,6)P4]
Kd [2]: 30 µM

Molecule: O=P(O)(O)OC1[C@H](O)[C@H](OP(=O)(O)O)C(OP(=O)(O)O)[C@H](OP(=O)(O)O)[C@H]1O (some centres unmarked) [Ins(1,3,4,5)P4]
Kd [2]: 13 µM
HDAC3 activation relative to maximal Ins(1,4,5,6)P4-stimulated activity [2]: greater than 75%

Molecule: Nc1ncnc2c1ncn2[C@@H]1O[C@H](CO)[C@@H](O[C@H]2O[C@H](CO)[C@@H](OP(=O)(O)O)[C@H](OP(=O)(O)O)[C@H]2O)[C@H]1OP(=O)(O)O [adenophostin A]
HDAC activity as percentage of maximal Ins(1,4,5,6)P4 activity [2]: no activity; also recorded: neither activates HDAC3; also recorded: completely inert
IC50 displacement of 2-FAM-Ins(1,3,4,5,6)P5 [3]: nor competes for inositol phosphate binding

Molecule: O=P(O)(O)O[C@H]1[C@H](OP(=O)(O)O)[C@@H](OP(=O)(O)O)[C@@H](O)[C@@H](O)[C@@H]1OP(=O)(O)O [Ins(3,4,5,6)P4]
Kd [2]: 41 µM

Molecule: O=P(O)(O)OC1C(O)C(O)C(O)C(OP(=O)(O)O)C1OP(=O)(O)O (centres unmarked) [Ins(4,5,6)P3]
Kd [2]: 45 µM
HDAC3 activation relative to maximal Ins(1,4,5,6)P4-stimulated activity [2]: 85%

Molecule: O=P(O)(O)OC1[C@@H](OP(=O)(O)O)[C@H](OP(=O)(O)O)C(O)[C@H](OP(=O)(O)O)[C@H]1OP(=O)(O)O (some centres unmarked)
Kd [2]: 5 µM
HDAC3 activation relative to maximal Ins(1,4,5,6)P4-stimulated activity [2]: same degree as Ins(1,4,5,6)P4
increase in apparent affinity compared with Ins(1,4,5,6)P4 ([2]; ratio of apparent Kd values): twofold
activation of HDAC1:MTA1 complex [4]: can be activated
Kd [4]: 2.6 µM

Molecule: O=P(O)(O)Oc1ccc(OP(=O)(O)O)c(OP(=O)(O)O)c1OP(=O)(O)O [benzene 1,2,3,4-tetrakisphosphate]
HDAC activity as percentage of maximal Ins(1,4,5,6)P4 activity [2]: fails to substantially activate the complex

Molecule: O=P(O)(O)O[C@@H]1[C@H](O)[C@H](O)[C@@H](OP(=O)(O)O)[C@H](OP(=O)(O)O)[C@H]1O [Ins(1,4,5)P3]
HDAC3 activation relative to maximal Ins(1,4,5,6)P4-stimulated activity [2]: completely unable to activate HDAC3; also recorded: completely inert; also recorded: do not activate the complex
IC50 [3]: 19 µM

Second part, led by results:

enhancement of the binding of 2-FAM-Ins(1,3,4,5,6)P5 to the allosteric site by inhibitor [1]: threefold enhancement
Molecule: MS-275

IC50 [3]: 1.5 µM
Molecule: O=P(O)(O)O[C@@H]1C(O)[C@H](OP(=O)(O)O)[C@@H](OP(=O)(O)O)C(O)[C@H]1OP(=O)(O)O (some centres unmarked) [Ins(1,3,4,6)P4]
HDAC3 activation relative to maximal Ins(1,4,5,6)P4-stimulated activity [2]: unable to activate HDAC3; also recorded: do not activate the complex

HDAC activity as percentage of maximal Ins(1,4,5,6)P4 activity [2]: ~60%
Molecule: O=P(O)(O)O[C@@H]1[C@@H](OP(=O)(O)OP(=O)(O)O)[C@H](OP(=O)(O)O)[C@@H](OP(=O)(O)O)[C@@H](O)[C@H]1OP(=O)(O)O [5-PP-InsP4]

Kd [2]: 29 µM
HDAC3 activation relative to maximal Ins(1,4,5,6)P4-stimulated activity [2]: 60%
Molecule: O=P(O)(O)O[C@H]1[C@H](OP(=O)(O)O)[C@H](O)[C@H](O)[C@@H](O)[C@@H]1OP(=O)(O)O [Ins(1,5,6)P3]

inhibition of the deacetylase activity of HDAC1:MTA1 (IC50) [5]: 0.336 µM
Molecule: H4K16Hx (histone H4 residues 12-18 with hydroxamic acid functionality at K16) (from UniProt P62805 13-19) (peptide)

HDAC activity as percentage of maximal Ins(1,4,5,6)P4 activity [2]: completely inert
Molecule: O=C(CP(=O)(O)O)O[C@@H]1[C@@H](OP(=O)(O)O)[C@H](OP(=O)(O)O)[C@H](O)[C@H](OP(=O)(O)O)[C@H]1OP(=O)(O)O [2-OH-5-PA-InsP4]

enhancement of the binding of 2-FAM-Ins(1,3,4,5,6)P5 to the allosteric site by inhibitor [1]: more modest effect
IC50 [6]: 0.336 µM
Molecule: CC(=O)N[C@@H](CCCCN)C(=O)NCC(=O)NCC(=O)N[C@@H](C)C(=O)N[C@@H](CCCCCC(=O)NO)C(=O)N[C@@H](CCCNC(=N)N)C(=O)N[C@@H](Cc1c[nH]cn1)C(N)=O [H4K16Hx] (Ac-KGGA[Asu](NHOH)RH-NH2)

HDAC3 activation relative to maximal Ins(1,4,5,6)P4-stimulated activity [2]: completely inert
Molecule: O=P(O)(O)O[C@H]1[C@H](O)[C@H](O)[C@H](OP(=O)(O)O)[C@@H](OP(=O)(O)O)[C@@H]1O [Ins(1,4,6)P3]

kcat [7]: 2.72 s⁻¹
kcat [8]: 0.90 s⁻¹
Kd [9]: 10 µM
Kd [4]: 4.7 µM
Molecule: O=P(O)(O)O[C@@H]1[C@@H](OP(=O)(O)O)[C@H](OP(=O)(O)O)[C@@H](O)[C@@H](O)[C@H]1OP(=O)(O)O [Ins(1,4,5,6)P4, inositol 1,4,5,6-tetrakisphosphate]

binding result [10]: binds
B1: MTA1 residues 162-354 (domain or fragment, UniProt Q13330 162-354, looked up)
chain: ADKGEIRVGNRYQADITDLLKEGEEDGRDQSRLETQVWEAHNPLTDKQIDQFLVVARSVGTFARALDCSSSVRQPSLHMSAAAASRDITLFHAMDTLHKNIYDISKAISALVPQGGPVLCRDEMEEWSASEANLFEEALEKYGKDFTDIQQDFLPWKSLTSIIEYYYMWKTTDRYVQQKRLKAAEAESKLKQV
notes: MTA1, residues 162-354, cloned into pcDNA3 with a FLAG tag and TEV protease cleavage site; The complex was eluted from the FLAG resin with TEV protease; source: HEK293F, co-transfected with HDAC1, purified as the complex (FLAG resin, TEV elution, gel filtration)
